Assay results as given in PubChem BioAssay AID1963837 (Molecular Pharmacology Branch, DTP, NCI, 2024).

Tested on: 843126-344-R-J1-PDC complex spheroid viability
Assay: Anticancer human tumor 843126-344-R-J1-PDC patient-derived melanoma cell line growth inhibition [POLQ]
Details: for IC50: curve of first compound; for viability, T/C: stronger effect = lower value
Outline: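 Patient-derived tumour cells were co-cultured with HUVEC and mesenchymal stem cells as multicellular spheroids at 37 °C. They were treated with POLQ inhibitors (novobiocin, ART-558, RP6685) alone or combined with other agents. Top concentrations were at or near clinical Cmax (otherwise 10 microM; SN-38 at 1 microM), decreasing in half-log steps.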
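Wherever viability, T/C is given: spheroids exposed to drugs for seven days before readout.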

CC(=O)O[C@H]1C(=O)[C@@]2(C)[C@H]([C@H](OC(=O)c3ccccc3)[C@]3(O)C[C@H](OC(=O)[C@H](O)[C@@H](NC(=O)c4ccccc4)c4ccccc4)C(C)=C1C3(C)C)[C@]1(OC(C)=O)CO[C@@H]1C[C@@H]2O + Nc1ccc(C#CCN(C(=O)Cc2ncc(C(F)(F)F)cc2C(F)(F)F)c2ccc(F)cc2)nn1
IC50 (second compound 0.0316 µM): > 3 µM | IC50 (second compound 0.1 µM): > 3 µM | IC50 (second compound 0.316 µM): > 3 µM | IC50 (second compound 1 µM): > 3 µM | IC50 (second compound 3.16 µM): > 3 µM | IC50 (second compound 10 µM): > 3 µM | viability, T/C (second compound 0.0316 µM, first compound 0.00949 µM): 65.6% | viability, T/C (second compound 0.0316 µM, first compound 0.03 µM): 58.7% | viability, T/C (second compound 0.0316 µM, first compound 0.0949 µM): 65% | viability, T/C (second compound 0.0316 µM, first compound 0.3 µM): 65.8% | viability, T/C (second compound 0.0316 µM, first compound 0.949 µM): 68.5% | viability, T/C (second compound 0.0316 µM, first compound 3 µM): 69.6% | viability, T/C (second compound 0.1 µM, first compound 0.00949 µM): 65.6% | viability, T/C (second compound 0.1 µM, first compound 0.03 µM): 53.5% | viability, T/C (second compound 0.1 µM, first compound 0.0949 µM): 56.7% | viability, T/C (second compound 0.1 µM, first compound 0.3 µM): 61.5% | viability, T/C (second compound 0.1 µM, first compound 0.949 µM): 78.6% | viability, T/C (second compound 0.1 µM, first compound 3 µM): 61.2% | viability, T/C (second compound 0.316 µM, first compound 0.00949 µM): 68.1% | viability, T/C (second compound 0.316 µM, first compound 0.03 µM): 53.4% | viability, T/C (second compound 0.316 µM, first compound 0.0949 µM): 70.7% | viability, T/C (second compound 0.316 µM, first compound 0.3 µM): 61.6% | viability, T/C (second compound 0.316 µM, first compound 0.949 µM): 64.8% | viability, T/C (second compound 0.316 µM, first compound 3 µM): 73.5% | viability, T/C (second compound 1 µM, first compound 0.00949 µM): 67.2% | viability, T/C (second compound 1 µM, first compound 0.03 µM): 57.1% | viability, T/C (second compound 1 µM, first compound 0.0949 µM): 62.2% | viability, T/C (second compound 1 µM, first compound 0.3 µM): 55.6% | viability, T/C (second compound 1 µM, first compound 0.949 µM): 62.8% | viability, T/C (second compound 1 µM, first compound 3 µM): 62.7% | viability, T/C (second compound 3.16 µM, first compound 0.00949 µM): 69.3% | viability, T/C (second compound 3.16 µM, first compound 0.03 µM): 62.1% | viability, T/C (second compound 3.16 µM, first compound 0.0949 µM): 54.9% | viability, T/C (second compound 3.16 µM, first compound 0.3 µM): 59.8% | viability, T/C (second compound 3.16 µM, first compound 0.949 µM): 63.7% | viability, T/C (second compound 3.16 µM, first compound 3 µM): 61.5% | viability, T/C (second compound 10 µM, first compound 0.00949 µM): 65.5% | viability, T/C (second compound 10 µM, first compound 0.03 µM): 57.6% | viability, T/C (second compound 10 µM, first compound 0.0949 µM): 61.5% | viability, T/C (second compound 10 µM, first compound 0.3 µM): 61.3% | viability, T/C (second compound 10 µM, first compound 0.949 µM): 60.2% | viability, T/C (second compound 10 µM, first compound 3 µM): 61.8%

CC1COCCN1c1cc(-c2ccnn2C)c2ccnc(-c3ccn[nH]3)c2n1 (centres undefined) + COC1C(OC(N)=O)C(O)C(Oc2ccc3c(O)c(NC(=O)c4ccc(O)c(CC=C(C)C)c4)c(=O)oc3c2C)OC1(C)C
IC50 (second compound 0.0316 µM): 1.04 µM | IC50 (second compound 0.1 µM): 0.875 µM | IC50 (second compound 0.316 µM): 0.784 µM | IC50 (second compound 1 µM): 1.27 µM | IC50 (second compound 3.16 µM): 0.918 µM | IC50 (second compound 10 µM): 1.1 µM | viability, T/C (second compound 0.0316 µM, first compound 0.0316 µM): 98.7% | viability, T/C (second compound 0.0316 µM, first compound 0.1 µM): 69.8% | viability, T/C (second compound 0.0316 µM, first compound 0.316 µM): 66.3% | viability, T/C (second compound 0.0316 µM, first compound 1 µM): 54.2% | viability, T/C (second compound 0.0316 µM, first compound 3.16 µM): 35.5% | viability, T/C (second compound 0.0316 µM, first compound 10 µM): 34.2% | viability, T/C (second compound 0.1 µM, first compound 0.0316 µM): 81.1% | viability, T/C (second compound 0.1 µM, first compound 0.1 µM): 76.5% | viability, T/C (second compound 0.1 µM, first compound 0.316 µM): 67.1% | viability, T/C (second compound 0.1 µM, first compound 1 µM): 47.2% | viability, T/C (second compound 0.1 µM, first compound 3.16 µM): 33.4% | viability, T/C (second compound 0.1 µM, first compound 10 µM): 26.4% | viability, T/C (second compound 0.316 µM, first compound 0.0316 µM): 92.4% | viability, T/C (second compound 0.316 µM, first compound 0.1 µM): 73.7% | viability, T/C (second compound 0.316 µM, first compound 0.316 µM): 60.4% | viability, T/C (second compound 0.316 µM, first compound 1 µM): 46.2% | viability, T/C (second compound 0.316 µM, first compound 3.16 µM): 38.1% | viability, T/C (second compound 0.316 µM, first compound 10 µM): 23.7% | viability, T/C (second compound 1 µM, first compound 0.0316 µM): 65.7% | viability, T/C (second compound 1 µM, first compound 0.1 µM): 77.5% | viability, T/C (second compound 1 µM, first compound 0.316 µM): 71.3% | viability, T/C (second compound 1 µM, first compound 1 µM): 53.5% | viability, T/C (second compound 1 µM, first compound 3.16 µM): 36.3% | viability, T/C (second compound 1 µM, first compound 10 µM): 32% | viability, T/C (second compound 3.16 µM, first compound 0.0316 µM): 73.3% | viability, T/C (second compound 3.16 µM, first compound 0.1 µM): 83% | viability, T/C (second compound 3.16 µM, first compound 0.316 µM): 58.5% | viability, T/C (second compound 3.16 µM, first compound 1 µM): 45.9% | viability, T/C (second compound 3.16 µM, first compound 3.16 µM): 42.1% | viability, T/C (second compound 3.16 µM, first compound 10 µM): 25% | viability, T/C (second compound 10 µM, first compound 0.0316 µM): 73.3% | viability, T/C (second compound 10 µM, first compound 0.1 µM): 77.5% | viability, T/C (second compound 10 µM, first compound 0.316 µM): 61.5% | viability, T/C (second compound 10 µM, first compound 1 µM): 46.1% | viability, T/C (second compound 10 µM, first compound 3.16 µM): 42.9% | viability, T/C (second compound 10 µM, first compound 10 µM): 24.3%
